Results as given in publication doi:10.1101/2023.11.24.568596v1 (biorxiv, 2023).
Values belong to the molecule of their own block, whether it stands above or below them.

What was measured:
Conditions in all cases: binder
LOK = LOK (Homo sapiens, UniProt O94804)
Haspin = molecular target: T1, Haspin (Homo sapiens, UniProt Q8TF76)
T1 sequence (Q8TF76 1-798): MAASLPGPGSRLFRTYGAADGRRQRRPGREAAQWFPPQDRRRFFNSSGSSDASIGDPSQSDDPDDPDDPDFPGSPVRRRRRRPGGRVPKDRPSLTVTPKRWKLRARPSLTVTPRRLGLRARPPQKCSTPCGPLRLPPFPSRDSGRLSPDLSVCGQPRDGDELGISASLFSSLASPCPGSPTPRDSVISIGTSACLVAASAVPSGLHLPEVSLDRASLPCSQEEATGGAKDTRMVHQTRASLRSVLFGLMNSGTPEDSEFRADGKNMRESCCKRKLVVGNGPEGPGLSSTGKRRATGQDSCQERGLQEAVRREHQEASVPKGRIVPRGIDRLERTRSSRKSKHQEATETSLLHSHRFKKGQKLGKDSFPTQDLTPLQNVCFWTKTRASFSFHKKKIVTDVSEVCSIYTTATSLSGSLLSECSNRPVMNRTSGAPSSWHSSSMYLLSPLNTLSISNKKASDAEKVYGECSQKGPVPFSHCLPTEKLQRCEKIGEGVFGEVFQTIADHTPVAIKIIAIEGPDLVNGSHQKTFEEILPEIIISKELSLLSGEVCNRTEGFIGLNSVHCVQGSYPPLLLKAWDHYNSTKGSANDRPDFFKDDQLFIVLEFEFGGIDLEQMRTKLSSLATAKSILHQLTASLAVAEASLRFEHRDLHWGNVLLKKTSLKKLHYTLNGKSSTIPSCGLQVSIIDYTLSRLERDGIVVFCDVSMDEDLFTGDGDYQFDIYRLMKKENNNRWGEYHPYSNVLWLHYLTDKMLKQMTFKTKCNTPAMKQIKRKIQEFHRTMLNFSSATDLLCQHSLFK

MRCKa = MRCKa (Homo sapiens, UniProt Q5VT25)
Sequence of MRCKa (Q5VT25 whole entry): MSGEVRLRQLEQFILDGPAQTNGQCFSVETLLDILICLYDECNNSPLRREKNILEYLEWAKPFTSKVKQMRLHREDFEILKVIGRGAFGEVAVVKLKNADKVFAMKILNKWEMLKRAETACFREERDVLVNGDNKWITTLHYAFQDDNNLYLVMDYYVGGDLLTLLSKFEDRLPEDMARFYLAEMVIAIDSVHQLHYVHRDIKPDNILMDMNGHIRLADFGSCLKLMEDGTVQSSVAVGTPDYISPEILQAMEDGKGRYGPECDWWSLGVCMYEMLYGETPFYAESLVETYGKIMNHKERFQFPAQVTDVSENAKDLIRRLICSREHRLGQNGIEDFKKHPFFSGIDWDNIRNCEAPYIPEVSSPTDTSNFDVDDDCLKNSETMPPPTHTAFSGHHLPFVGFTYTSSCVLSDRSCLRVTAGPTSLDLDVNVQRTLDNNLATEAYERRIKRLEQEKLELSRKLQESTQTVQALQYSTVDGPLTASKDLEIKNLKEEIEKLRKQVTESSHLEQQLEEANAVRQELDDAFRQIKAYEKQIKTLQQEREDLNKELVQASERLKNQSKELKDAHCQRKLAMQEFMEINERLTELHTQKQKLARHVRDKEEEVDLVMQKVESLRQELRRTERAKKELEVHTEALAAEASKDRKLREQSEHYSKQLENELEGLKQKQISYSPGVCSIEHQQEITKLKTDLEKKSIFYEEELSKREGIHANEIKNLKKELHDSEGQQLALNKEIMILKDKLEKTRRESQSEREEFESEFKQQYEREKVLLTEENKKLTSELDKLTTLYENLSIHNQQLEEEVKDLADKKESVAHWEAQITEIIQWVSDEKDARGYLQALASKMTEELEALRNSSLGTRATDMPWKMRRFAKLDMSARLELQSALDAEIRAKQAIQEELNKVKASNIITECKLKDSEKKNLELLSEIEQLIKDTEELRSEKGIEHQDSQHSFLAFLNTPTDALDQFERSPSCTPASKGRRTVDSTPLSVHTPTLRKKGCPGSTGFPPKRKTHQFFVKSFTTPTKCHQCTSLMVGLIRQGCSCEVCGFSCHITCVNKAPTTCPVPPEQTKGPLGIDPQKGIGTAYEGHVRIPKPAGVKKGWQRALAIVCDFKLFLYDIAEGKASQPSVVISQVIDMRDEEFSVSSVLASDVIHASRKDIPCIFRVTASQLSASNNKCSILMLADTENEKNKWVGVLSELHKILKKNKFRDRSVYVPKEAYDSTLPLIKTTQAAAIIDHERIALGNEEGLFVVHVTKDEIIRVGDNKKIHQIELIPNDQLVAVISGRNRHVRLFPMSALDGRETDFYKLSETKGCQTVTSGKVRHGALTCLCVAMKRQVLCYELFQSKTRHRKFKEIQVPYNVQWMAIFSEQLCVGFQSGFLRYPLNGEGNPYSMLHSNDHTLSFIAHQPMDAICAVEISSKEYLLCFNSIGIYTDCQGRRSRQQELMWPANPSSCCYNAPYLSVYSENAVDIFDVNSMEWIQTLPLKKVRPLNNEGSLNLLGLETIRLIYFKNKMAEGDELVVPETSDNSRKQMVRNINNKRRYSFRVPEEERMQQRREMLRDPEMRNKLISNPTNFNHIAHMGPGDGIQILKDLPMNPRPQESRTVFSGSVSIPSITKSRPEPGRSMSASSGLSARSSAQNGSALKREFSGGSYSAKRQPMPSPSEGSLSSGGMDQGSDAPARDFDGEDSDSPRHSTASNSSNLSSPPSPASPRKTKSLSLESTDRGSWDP

OSR1 = OSR1 (Homo sapiens, UniProt O95747)
Sequence of OSR1 (O95747 whole entry): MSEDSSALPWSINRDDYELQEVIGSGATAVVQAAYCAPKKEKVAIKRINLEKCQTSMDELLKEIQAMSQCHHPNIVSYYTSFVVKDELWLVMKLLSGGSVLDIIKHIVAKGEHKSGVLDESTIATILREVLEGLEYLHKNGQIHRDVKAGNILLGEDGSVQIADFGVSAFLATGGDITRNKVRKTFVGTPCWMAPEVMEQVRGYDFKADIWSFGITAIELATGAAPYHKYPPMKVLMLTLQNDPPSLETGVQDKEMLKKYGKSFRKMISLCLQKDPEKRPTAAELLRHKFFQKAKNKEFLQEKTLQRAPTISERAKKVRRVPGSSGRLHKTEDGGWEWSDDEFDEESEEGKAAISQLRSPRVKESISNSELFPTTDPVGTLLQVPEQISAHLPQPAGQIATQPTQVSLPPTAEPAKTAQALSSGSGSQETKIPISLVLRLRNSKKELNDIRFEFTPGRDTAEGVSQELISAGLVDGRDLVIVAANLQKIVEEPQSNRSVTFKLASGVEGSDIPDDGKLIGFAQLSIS

MAP3K5 = molecular target: T2, MAP3K5 (Homo sapiens, UniProt Q99683)
T2 sequence (Q99683 1-1374): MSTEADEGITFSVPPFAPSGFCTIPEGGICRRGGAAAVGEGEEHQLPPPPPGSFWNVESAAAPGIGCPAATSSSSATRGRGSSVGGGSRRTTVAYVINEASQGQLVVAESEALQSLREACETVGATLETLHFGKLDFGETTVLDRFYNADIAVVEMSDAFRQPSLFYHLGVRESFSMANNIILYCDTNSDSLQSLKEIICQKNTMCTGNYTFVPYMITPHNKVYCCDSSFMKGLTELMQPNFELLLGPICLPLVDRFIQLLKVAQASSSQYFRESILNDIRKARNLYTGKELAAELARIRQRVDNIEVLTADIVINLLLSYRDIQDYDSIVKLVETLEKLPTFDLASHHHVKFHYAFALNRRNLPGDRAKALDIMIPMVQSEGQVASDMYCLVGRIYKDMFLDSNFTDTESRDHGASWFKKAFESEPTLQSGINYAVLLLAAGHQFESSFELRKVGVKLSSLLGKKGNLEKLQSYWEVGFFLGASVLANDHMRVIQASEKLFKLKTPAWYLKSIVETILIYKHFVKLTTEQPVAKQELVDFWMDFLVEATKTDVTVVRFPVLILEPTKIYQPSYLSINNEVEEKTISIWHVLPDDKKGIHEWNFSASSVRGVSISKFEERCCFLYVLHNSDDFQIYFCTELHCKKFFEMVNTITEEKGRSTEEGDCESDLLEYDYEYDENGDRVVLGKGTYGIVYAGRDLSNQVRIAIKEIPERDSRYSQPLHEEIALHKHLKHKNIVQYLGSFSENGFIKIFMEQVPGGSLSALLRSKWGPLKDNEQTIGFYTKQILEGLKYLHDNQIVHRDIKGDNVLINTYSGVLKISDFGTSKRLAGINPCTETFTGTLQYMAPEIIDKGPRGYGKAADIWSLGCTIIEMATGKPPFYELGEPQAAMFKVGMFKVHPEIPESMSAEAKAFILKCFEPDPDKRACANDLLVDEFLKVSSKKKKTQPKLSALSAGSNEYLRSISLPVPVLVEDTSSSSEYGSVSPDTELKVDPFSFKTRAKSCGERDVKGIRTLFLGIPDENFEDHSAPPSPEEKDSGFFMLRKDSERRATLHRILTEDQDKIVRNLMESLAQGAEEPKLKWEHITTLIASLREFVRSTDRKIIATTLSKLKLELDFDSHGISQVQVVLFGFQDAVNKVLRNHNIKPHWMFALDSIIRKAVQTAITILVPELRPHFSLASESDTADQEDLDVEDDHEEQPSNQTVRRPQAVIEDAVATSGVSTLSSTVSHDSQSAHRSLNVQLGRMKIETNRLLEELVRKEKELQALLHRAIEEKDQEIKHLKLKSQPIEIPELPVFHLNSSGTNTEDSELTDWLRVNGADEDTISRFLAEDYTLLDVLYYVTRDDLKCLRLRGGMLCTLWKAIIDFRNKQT

Sequence of LOK (O94804 whole entry): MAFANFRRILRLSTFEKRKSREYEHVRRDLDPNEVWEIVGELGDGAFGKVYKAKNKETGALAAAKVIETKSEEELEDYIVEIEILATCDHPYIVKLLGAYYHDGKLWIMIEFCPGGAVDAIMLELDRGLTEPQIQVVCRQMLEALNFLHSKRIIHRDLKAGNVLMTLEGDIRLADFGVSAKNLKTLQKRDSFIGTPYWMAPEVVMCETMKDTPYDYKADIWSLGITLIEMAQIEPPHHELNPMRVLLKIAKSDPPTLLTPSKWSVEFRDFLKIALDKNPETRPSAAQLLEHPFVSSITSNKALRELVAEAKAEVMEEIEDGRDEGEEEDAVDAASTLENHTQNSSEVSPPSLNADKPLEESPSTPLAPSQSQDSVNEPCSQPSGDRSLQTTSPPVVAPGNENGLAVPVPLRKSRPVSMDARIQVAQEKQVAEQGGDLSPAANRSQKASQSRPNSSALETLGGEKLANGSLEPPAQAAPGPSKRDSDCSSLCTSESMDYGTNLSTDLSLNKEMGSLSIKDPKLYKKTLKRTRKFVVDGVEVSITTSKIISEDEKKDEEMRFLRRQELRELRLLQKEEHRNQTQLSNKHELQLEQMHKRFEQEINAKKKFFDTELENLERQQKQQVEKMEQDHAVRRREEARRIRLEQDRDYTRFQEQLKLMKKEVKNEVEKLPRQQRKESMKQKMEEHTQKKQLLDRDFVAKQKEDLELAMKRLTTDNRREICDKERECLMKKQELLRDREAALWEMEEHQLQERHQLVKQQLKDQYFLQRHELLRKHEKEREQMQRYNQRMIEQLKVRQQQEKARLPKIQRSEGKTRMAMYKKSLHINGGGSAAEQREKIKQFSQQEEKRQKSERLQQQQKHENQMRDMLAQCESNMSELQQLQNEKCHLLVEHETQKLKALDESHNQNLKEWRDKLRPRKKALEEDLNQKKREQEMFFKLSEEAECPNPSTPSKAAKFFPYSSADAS

SMILES: CNc1ncc2cc(-c3ccc(-c4cccc(C)n4)cc3Cl)c(=O)n(CCC3CCNCC3)c2n1 [compound 22, 6-(2-Chloro-4-(6-methylpyridin-2-yl)phenyl)-2-(methylamino)-8-(2-(piperidin-4-yl)ethyl)pyrido[2,3-d]pyrimidin-7(8H)-one]
- ΔTm 22 (LOK): 11.4 °C
- ΔTm 22 (Haspin): -1.2 °C
- ΔTm 22 (MRCKa): 1.8 °C
- ΔTm 22 (OSR1): 0.7 °C
- ΔTm 22 (MAP3K5): 12.0 °C

SMILES: CNc1ncc2cc(-c3ccc(-c4cccc(C)n4)cc3Cl)c(=O)n(C[C@H]3CC[C@H](N)CC3)c2n1 [compound 23, 23]
- ΔTm 23 (LOK): 13.0 °C
- ΔTm 23 (Haspin): 1.5 °C
- ΔTm 23 (MRCKa): 2.9 °C
- ΔTm 23 (OSR1): 2.3 °C
- ΔTm 23 (MAP3K5): 12.4 °C

SMILES: Cc1cccc(-c2ccc(-c3cc4cnc(NC(CO)CO)nc4n(CCCCN)c3=O)c(Cl)c2)n1 [compound 24, 8-(4-Aminobutyl)-6-(2-chloro-4-(6-methylpyridin-2-yl)phenyl)-2-((1,3-dihydroxypropan-2-yl)amino)pyrido[2,3-d]pyrimidin-7(8H)-one]
- ΔTm MR24 (24) (LOK): -0.6 °C
- ΔTm MR24 (24) (Haspin): -1.4 °C
- ΔTm MR24 (24) (MRCKa): -0.7 °C
- ΔTm MR24 (24) (OSR1): -0.5 °C
- ΔTm MR24 (24) (MAP3K5): 9.0 °C

The remaining lines, values ahead:

- ΔTm MRLW5 (20) (LOK): 12.5 °C
- ΔTm MRLW5 (20) (Haspin): -0.4 °C
- ΔTm MRLW5 (20) (MRCKa): 1.0 °C
- ΔTm MRLW5 (20) (OSR1): 1.6 °C
- ΔTm MRLW5 (20) (MAP3K5): 12.3 °C
SMILES: CNc1ncc2cc(-c3ccc(-c4cccc(C)n4)cc3Cl)c(=O)n(CCCCN)c2n1 [compound 20, MRLW5]

- ΔTm 25 (LOK): -0.7 °C
- ΔTm 25 (Haspin): 1.9 °C
- ΔTm 25 (MRCKa): 0.0 °C
- ΔTm 25 (OSR1): 0.4 °C
- ΔTm 25 (MAP3K5): 11.8 °C
SMILES: Cc1cccc(-c2ccc(-c3cc4cnc(NCCCc5ccc(N)cc5)nc4n(CCCCN)c3=O)c(Cl)c2)n1 [compound 25, 8-(4-Aminobutyl)-2-((3-(4-aminophenyl)propyl)amino)-6-(2-chloro-4-(6-methylpyridin-2-yl)phenyl)pyrido[2,3-d]pyrimidin-7(8H)-one]

- ΔTm MR26 (26) (LOK): -0.4 °C
- ΔTm MR26 (26) (Haspin): -1.5 °C
- ΔTm MR26 (26) (MRCKa): -0.2 °C
- ΔTm MR26 (26) (OSR1): -0.1 °C
- ΔTm MR26 (26) (MAP3K5): 9.8 °C
SMILES: Cc1cccc(-c2ccc(-c3cc4cnc(NCCCN5CCOCC5)nc4n(CCCCN)c3=O)c(Cl)c2)n1 [compound 26, MR26]
